This is an account of results in PubChem BioAssay (NCI).

Some test systems named below: COLO 205 colon; SW-620 colon; UO-31 renal; K-562 leukemia; HOP-92 NSCLC; HL-60(TB) leukemia; SF-295 CNS; HCT-116 colon; PC-3 prostate; MDA-MB-231 breast.
Common to all, as to assay: inhibition of tumour cell growth, NCI panel, 48 h

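Five concentrations, 48 hours, 96-well plates. GI50: concentration for 50% inhibition of growth. TGI denotes the concentration required for complete inhibition of growth.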

In the case of `CCCCON(OC(=O)c1ccc2ccc3cccc4ccc1c2c34)C(C)=O`, the GI50 is 24.9 µM in the assay on COLO 205 colon; 18.5 µM with SW-620 colon; 19.5 µM in the assay on UO-31 renal; 20.9 µM in the assay on K-562 leukemia; 16.3 µM in the assay with HOP-92 NSCLC; 19.2 µM with HL-60(TB) leukemia. In addition, the GI50 with SF-295 CNS is 30.3 µM; in the assay with HCT-116 colon, 22.4 µM; in the assay on PC-3 prostate, 22.2 µM; with MDA-MB-231 breast, 18.9 µM. Further, the TGI in the assay on COLO 205 colon was 98.9 µM; with SW-620 colon, 39.1 µM; with UO-31 renal it was 42.4 µM; in the assay with K-562 leukemia it was 50.2 µM; in the assay on HOP-92 NSCLC it was 44.3 µM; with HL-60(TB) leukemia, 44.2 µM. The TGI in the assay with SF-295 CNS is greater than 100 µM; in the assay with HCT-116 colon, 52.3 µM; with PC-3 prostate, 56.7 µM; in the assay on MDA-MB-231 breast it was 40.2 µM.

Take `Cc1[nH]c2ccccc2c(=O)c1CC=C(Cl)Cl`: the GI50 with COLO 205 colon was greater than 100 µM; with SW-620 colon it was greater than 100 µM; in the assay on UO-31 renal, 42.8 µM; in the assay on K-562 leukemia it was 99.2 µM; in the assay on HOP-92 NSCLC, 15 µM; in the assay on HL-60(TB) leukemia, greater than 100 µM. The GI50 in the assay with SF-295 CNS is 32 µM; in the assay with HCT-116 colon it was 45.3 µM; in the assay with PC-3 prostate, 99.9 µM; with MDA-MB-231 breast, 31 µM. The TGI in the assay with COLO 205 colon is greater than 100 µM; in the assay with SW-620 colon, greater than 100 µM; in the assay on UO-31 renal it was greater than 100 µM; with K-562 leukemia, greater than 100 µM; in the assay on HOP-92 NSCLC, 70.3 µM; with HL-60(TB) leukemia it was greater than 100 µM. Also, the TGI in the assay on SF-295 CNS, with HCT-116 colon, in the assay on PC-3 prostate and with MDA-MB-231 breast was greater than 100 µM each time.

In the case of `C=C1C(=O)OC2/C=C(\COC(C)=O)CCC(OC(C)=O)C3=CC(OC3=O)C12` (centres undefined), the TGI is 6.54 µM with COLO 205 colon; 4.47 µM in the assay with SW-620 colon; 35.5 µM in the assay with UO-31 renal; 7.63 µM with K-562 leukemia; 12.5 µM in the assay on HOP-92 NSCLC; greater than 20.3 µM in the assay with HL-60(TB) leukemia. The TGI in the assay on SF-295 CNS was 32.6 µM; with HCT-116 colon, 6.85 µM; with PC-3 prostate, 30.5 µM; with MDA-MB-231 breast, 41.7 µM.

On to `COc1cc2[nH]c(C(=O)c3cc(OC)c(OC)c(OC)c3)c(N)c2cc1C#CC1CC1`, for which the GI50 with COLO 205 colon is 2.4 µM; in the assay with SW-620 colon, 2.9 µM; in the assay on UO-31 renal, 2.6 µM; in the assay on K-562 leukemia, 1.94 µM; in the assay with HOP-92 NSCLC, 0.622 µM; with HL-60(TB) leukemia, 3.36 µM. For the same compound, the GI50 in the assay with SF-295 CNS is 1.66 µM; in the assay with HCT-116 colon, 2.06 µM; in the assay with PC-3 prostate, 2.21 µM; with MDA-MB-231 breast, 3.9 µM. For the same compound, the TGI with COLO 205 colon was 8.34 µM; in the assay on SW-620 colon, greater than 100 µM; with UO-31 renal, greater than 100 µM; in the assay with K-562 leukemia, greater than 100 µM; with HOP-92 NSCLC it was 94.5 µM; in the assay with HL-60(TB) leukemia it was 22 µM. Further, the TGI is greater than 100 µM in the assay with SF-295 CNS, 85.3 µM with HCT-116 colon, greater than 100 µM with PC-3 prostate and greater than 100 µM in the assay on MDA-MB-231 breast.

Consider `C[C@H](O)C(=O)N1CCC(CCn2c(Sc3cc4c(cc3Br)OCO4)nc3c(N)ncnc32)CC1`, for which the GI50 was 0.467 µM in the assay on COLO 205 colon; 0.49 µM with SW-620 colon; 2.05 µM in the assay with UO-31 renal; 0.472 µM with K-562 leukemia; 2.19 µM in the assay on HOP-92 NSCLC; 0.409 µM with HL-60(TB) leukemia. Also, the GI50 was 0.741 µM with SF-295 CNS, 0.461 µM in the assay on HCT-116 colon, 1.16 µM in the assay with PC-3 prostate and 1.46 µM in the assay on MDA-MB-231 breast. The TGI in the assay on COLO 205 colon is greater than 100 µM; in the assay on SW-620 colon, greater than 100 µM; in the assay on UO-31 renal it was greater than 100 µM; with K-562 leukemia it was greater than 100 µM; in the assay with HOP-92 NSCLC it was greater than 100 µM; in the assay on HL-60(TB) leukemia it was 14.5 µM. Further, the TGI in the assay with SF-295 CNS was greater than 22.8 µM; with HCT-116 colon, greater than 100 µM; in the assay on PC-3 prostate, greater than 100 µM; in the assay on MDA-MB-231 breast, 31.9 µM.

For the compound `CC(C)(C[C@H]1CN(S(=O)(=O)c2cccc(C(F)(F)F)c2)c2cc(-c3cc(F)cc(OC(F)F)c3)ccc2O1)C(=O)O`, the GI50 in the assay with COLO 205 colon is 11.3 µM; in the assay with SW-620 colon, 5.02 µM; with UO-31 renal, 10.8 µM; in the assay on K-562 leukemia, 4.83 µM; with HOP-92 NSCLC, 3.1 µM; in the assay with HL-60(TB) leukemia, 4.82 µM. The GI50 is 4.12 µM with SF-295 CNS, 4.01 µM in the assay with HCT-116 colon, 5.04 µM in the assay on PC-3 prostate and 13.3 µM in the assay with MDA-MB-231 breast. The TGI in the assay with COLO 205 colon amounted to 32.7 µM; in the assay with SW-620 colon, 21.5 µM; in the assay on UO-31 renal, 23.4 µM; in the assay with K-562 leukemia, 30.3 µM; in the assay with HOP-92 NSCLC it was 16.8 µM; with HL-60(TB) leukemia, 24.8 µM. In addition, the TGI in the assay on SF-295 CNS was 18.5 µM; in the assay with HCT-116 colon, 15.8 µM; in the assay with PC-3 prostate, 18.9 µM; in the assay with MDA-MB-231 breast, 34 µM.

In the case of `O=c1cccc(C#CC#CC2=CCCCC2)o1`, the GI50 in the assay on COLO 205 colon was 4.58 µM; in the assay on SW-620 colon, 3.4 µM; in the assay with UO-31 renal, 3.99 µM; in the assay with K-562 leukemia it was 3.26 µM; with HL-60(TB) leukemia, 4.77 µM; in the assay with SF-295 CNS, 9.04 µM. For the same compound, the GI50 in the assay on HCT-116 colon is 1.16 µM; with PC-3 prostate, 6.6 µM; in the assay on MDA-MB-231 breast it was 1.96 µM. Moreover, the TGI in the assay on COLO 205 colon was 13.5 µM; in the assay on SW-620 colon, 18.2 µM; with UO-31 renal it was 11 µM; in the assay with K-562 leukemia, greater than 41.8 µM; in the assay on HOP-92 NSCLC, greater than 23 µM; in the assay with HL-60(TB) leukemia it was 18.3 µM. The TGI was determined as 16.4 µM in the assay with SF-295 CNS, 3.67 µM with HCT-116 colon, 11.6 µM in the assay with PC-3 prostate and 5.3 µM with MDA-MB-231 breast.
